Experiment [1] has as its target T1, human FPRL2 (Homo sapiens, UniProt P25089).
T1 construct: expressed in transfected cells; host or cells: HEK293 (HEK293-hFPRL2-Gα16)
T1 sequence (P25089 1-353): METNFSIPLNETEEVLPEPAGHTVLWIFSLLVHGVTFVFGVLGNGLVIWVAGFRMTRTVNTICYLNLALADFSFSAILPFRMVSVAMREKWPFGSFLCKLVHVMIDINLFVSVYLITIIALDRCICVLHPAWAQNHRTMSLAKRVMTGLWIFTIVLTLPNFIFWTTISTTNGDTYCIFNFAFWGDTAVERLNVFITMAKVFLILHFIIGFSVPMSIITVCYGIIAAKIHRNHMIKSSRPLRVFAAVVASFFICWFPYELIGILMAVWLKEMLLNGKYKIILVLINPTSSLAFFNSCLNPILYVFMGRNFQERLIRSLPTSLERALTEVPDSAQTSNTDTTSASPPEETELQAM
Description: Intracellular calcium measurements (FLIPR), agonistic activity in HEK293-hFPRL2-Gα16 cells. In kind it is cell-based. The note with it: Fluo-4 calcium FLIPR, normalized to GLY14-Humanin 100 nM. The procedure, abridged:
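Peak values after baseline subtraction are expressed relative to 100 nM Gly14-Humanin; compounds diluted in assay buffer from 10 mM DMSO stocks.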
(A change in cytosolic calcium serves as a functional read-out for many receptors and channels.)

In experiment [2] the target is T2, human ALX receptor (Homo sapiens, UniProt P25090).
T2 construct: expressed in transfected cells; host or cells: HEK293 (HEK293-hALXR-Gα16)
T2 sequence (P25090 1-351): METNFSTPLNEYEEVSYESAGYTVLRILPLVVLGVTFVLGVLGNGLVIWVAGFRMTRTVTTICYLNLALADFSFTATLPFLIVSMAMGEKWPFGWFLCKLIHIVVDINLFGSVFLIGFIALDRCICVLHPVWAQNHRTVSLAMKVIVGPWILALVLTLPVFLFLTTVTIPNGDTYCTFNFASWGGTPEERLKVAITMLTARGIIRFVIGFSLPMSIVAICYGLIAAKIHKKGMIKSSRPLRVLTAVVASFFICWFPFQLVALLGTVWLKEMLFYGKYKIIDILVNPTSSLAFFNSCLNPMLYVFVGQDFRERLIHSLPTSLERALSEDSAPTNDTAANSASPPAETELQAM
Description: Intracellular calcium measurements (FLIPR), agonistic activity in HEK293-hALXR-Gα16 cells. In kind it is cell-based. The note with it: Fluo-4 calcium FLIPR, normalized to WKYMVm 10 nM. The essentials:
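HEK293 cells expressing hALXR and Gα16 were loaded with 1 μM Fluo-4 AM and 20 mM HEPES for 60 min at 37°C, then exposed to serially diluted compound. FLIPR fluorescence was read at ex 488/em 540 nm. Baseline-subtracted peak responses were normalized to 10 nM WKYMVm.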

As usually defined, the EC50 is the concentration giving half of the maximal effect.

Consider `O=C(NCCCCN1CCCC1)[C@H]1[C@H](C(=O)Nc2ccc(Br)cc2)[C@@H]2CC[C@H]1C21CC1` [Example 113, (5R)—N^5-(4-Bromophenyl)-(6R)—N^6-(4-pyrrolidin-1-yl-butyl)-(4S,7R)-[4,7-ethylene-spiro[2.4]heptane]-5,6-dicarboxamide], for which the EC50 in experiment [1] was determined as 15 nM; in experiment [2], 0.35 nM.

For the compound `O=C(NCCCCN1CCCC1)[C@H]1[C@H](C(=O)NCc2ccc(Br)cc2)[C@@H]2C=C[C@H]1C21CC1` [Example 286, (5R)—N^5-(4-Bromophenyl-methyl)-(6R)—N^6-(4-pyrrolidino-butyl)-(4S,7R)-[4,7-ethenylene-spiro[2.4]heptane]-5,6-dicarboxamide], the EC50 in experiment [1] and in experiment [2] was 32 nM each time.

On to `CC1CCC(C)N1CCCCNC(=O)[C@H]1[C@H](C(=O)Nc2ccc(Br)cc2)[C@@H]2C=C[C@H]1C21CC1` (stereo partly drawn) [Example 397, (5R)—N^5-(4-Bromophenyl)-(6R)—N^6-(4-(2,5-dimethylpyrrolidin-1-yl)butyl)-(4S,7R)-[4,7-ethenylene-spiro[2.4]heptane]-5,6-dicarboxamide], for which the 50% effective concentration (EC50) in experiment [1] came out at 149 nM; in experiment [2], 2.1 nM.

As to `CC(C)(C)OC(=O)NCc1ccc(CNC(=O)[C@H]2[C@H](C(=O)Nc3ccc(Br)cc3)[C@@H]3C=C[C@H]2C32CC2)cc1` (racemic) [Example 97, (5R*)—N^5-(4-Bromophenyl)-(6R*)—N^6-[(4-N-tert-butoxycarbonyl-aminomethyl-phenyl)-methyl]-(4S*,7R*)-[4,7-ethenylene-spiro[2.4]heptane]-5,6-dicarboxamide], the EC50 in experiment [1] was 1430 nM; in experiment [2], 391 nM.

Turning to `O=C(NCCCc1nc2ccccc2[nH]1)[C@H]1[C@H](C(=O)Nc2ccc(Br)cc2)[C@@H]2C=C[C@H]1C21CC1` (racemic) [Example 32, (5R*)—N^5-(4-Bromophenyl)-(6R*)—N^6-(3-(1H-benzoimidazol-2-yl)-propyl)-(4S*,7R*)-[4,7-ethenylene-spiro[2.4]heptane]-5,6-dicarboxamide], the EC50 in experiment [1] was determined as 3280 nM; in experiment [2] it was 5.4 nM.

With `CC(=O)c1cccc(NC(=O)[C@H]2[C@H](C(=O)NCCCCN3CCCC3)[C@H]3C=C[C@@H]2C32CC2)c1` (racemic) [Example 352, (5R*)—N^5-(3-Acetylphenyl)-(6R*)—N^6-(4-pyrrolidino-butyl)-(4S*,7R*)-[4,7-ethenylene-spiro[2.4]heptane]-5,6-dicarboxamide], the concentration for a half-maximal effect (EC50) in experiment [1] stood at 958 nM; in experiment [2], 6700 nM.

`Cn1c(CCNC(=O)[C@H]2[C@H](C(=O)NCCCCN3CCCC3)[C@H]3C=C[C@@H]2C32CC2)nc2ccccc21` (racemic) [Example 156, (5R*)—N^5-(2-(1-Methyl-1H-benzoimidazol-2-yl)-ethyl)-(6R*)—N^6-(4-pyrrolidin-1-yl-butyl)-(4S*,7R*)-[4,7-ethenylene-spiro[2.4]heptane]-5,6-dicarboxamide]: the results for the half-maximal effective concentration (EC50) in experiment [1] and in experiment [2] were 623 nM and more than 25000 nM, respectively.

For the compound `O=C(NCC1C(C(=O)Nc2ccc(Br)cc2)C2C=CC1C21CC1)c1cnoc1-c1ccccc1` (stereo not drawn) [Example 160, (5R*)—N^5-(4-Bromo-phenyl)-(6R*)-6-{[(5-phenyl-isoxazole-4-carbonyl)-amino]-methyl}-(4S*,7R*)-[4,7-ethenylene-spiro[2.4]heptane]-5-carboxamide], the EC50 in experiment [1] is more than 25000 nM; in experiment [2] it was 37 nM.

Turning to `NC(=O)CCC(=O)NC[C@H]1[C@H](C(=O)Nc2ccc(Br)cc2)[C@@H]2C=C[C@H]1C21CC1` (racemic) [Example 170, (5R*)—N^5-(4-Bromo-phenyl)-(6R*)-6-{[(3-aminocarbonyl-propionyl)-amino]-methyl}-(4S*,7R*)-[4,7-ethenylene-spiro[2.4]heptane]-5-carboxamide], the 50% effective concentration (EC50) was more than 25000 nM in experiment [1] and 114 nM in experiment [2].

For `CC(C)CNC(=O)[C@H]1[C@H](C(=O)Nc2ncc(Br)s2)[C@@H]2CC[C@H]1C21CC1` [Example 331, (5R)—N^5-(5-Bromo-thiazol-2-yl)-(6R)—N^6-(isobutyl)-(4S,7R)-[4,7-ethylene-spiro[2.4]heptane]-5,6-dicarboxamide], the EC50 in experiment [1] was found to be 8250 nM; in experiment [2], 82 nM.

As for `CCCCC(=O)NC[C@H]1[C@H](C(=O)Nc2ccc(Br)cc2)[C@@H]2C=C[C@H]1C21CC1` (racemic) [Example 167, (5R*)—N^5-(4-Bromo-phenyl)-(6R*)-6-(pentanoylamino-methyl)-(4S*,7R*)-[4,7-ethenylene-spiro[2.4]heptane]-5-carboxamide], the EC50 turned out to be 3690 nM in experiment [1] and 103 nM in experiment [2].

For the compound `O=C(NCC1COCCO1)C1C(C(=O)Nc2ccc(Br)cc2)C2C=CC1C21CC1` (mixture of isomers) [Example 41, (5R*)—N^5-(4-Bromophenyl)-(6R*)—N^6-([1,4]-dioxan-2-yl-methyl)-(4S*,7R*)-[4,7-ethenylene-spiro[2.4]heptane]-5,6-dicarboxamide], the values for the EC50 in experiment [1] and in experiment [2] were 8510 nM and 9.5 nM, respectively.

Turning to `CCN1CCC(C(=O)NC[C@H]2[C@H](C(=O)Nc3ccc(Br)cc3)[C@@H]3C=C[C@H]2C32CC2)CC1` (racemic) [Example 173, (5R*)—N^5-(4-Bromo-phenyl)-(6R*)-6-{[(N-ethyl-piperidine-4-carbonyl)-amino]-methyl}-(4S*,7R*)-[4,7-ethenylene-spiro[2.4]heptane]-5-carboxamide], the EC50 in experiment [1] is 1820 nM; in experiment [2], 131 nM.

Regarding `NS(=O)(=O)c1ccc(CCNC(=O)[C@H]2[C@H](C(=O)NCCc3ccc(Cl)cc3)[C@@H]3C=C[C@H]2C32CC2)cc1` [Example 390, (5R)—N^5-(2-(4-Chlorophenyl)ethyl)-(6R)—N^6-(2-(4-aminosulfonyl-phenyl)-ethyl)-(4S,7R)-[4,7-ethenylene-spiro[2.4]heptane]-5,6-dicarboxamide], the EC50 in experiment [1] is 576 nM; in experiment [2], more than 25000 nM.

As for `O=C(NCCOCCN1CCCC1)[C@H]1[C@H](C(=O)Nc2ccc(Br)cc2)[C@@H]2C=C[C@H]1C21CC1` [Example 215, (5R)—N^5-(4-Bromophenyl)-(6R)—N^6-(2-(2-(pyrrolidin-1-yl)ethoxy)ethyl)-(4S,7R)-[4,7-ethenylene-spiro[2.4]heptane]-5,6-dicarboxamide], the concentration for a half-maximal effect (EC50) is 95 nM in experiment [1] and 0.72 nM in experiment [2].

Take `Cc1ccc(CCNC(=O)C2C(C(=O)NCCCCN3CCCC3)C3C=CC2C32CC2)cc1` (stereo not drawn) [Example 381, (5R*)—N^5-(2-(4-Methylphenyl)ethyl)-(6R*)—N^6-(4-pyrrolidino-butyl)-(4S*,7R*)-[4,7-ethenylene-spiro[2.4]heptane]-5,6-dicarboxamide]: the figures for the concentration giving a half-maximal response (EC50) in experiment [1] and in experiment [2] were 30 nM and 3900 nM, respectively.

Turning to `Cc1cc(C)n(CCC(=O)NCC2C(C(=O)Nc3ccc(Br)cc3)C3C=CC2C32CC2)n1` (stereo not drawn) [Example 159, (5R*)—N^5-(4-Bromo-phenyl)-(6R*)-6-[(3-(3,5-dimethyl-pyrazol-1-yl)-propionylamino)-methyl]-(4S*,7R*)-[4,7-ethenylene-spiro[2.4]heptane]-5-carboxamide], the concentration giving a half-maximal response (EC50) in experiment [1] is 2370 nM; in experiment [2], 13 nM.

For the compound `CC(C)(C)OC(=O)N1CCCC(NC(=O)C2C(C(=O)Nc3ccc(Br)cc3)C3C=CC2C32CC2)C1` (mixture of isomers) [Example 56, (5R*)—N^5-(4-Bromophenyl)-(6R*)—N^6-(N-tert-butoxycarbonyl-piperidin-3-yl)-(4S*,7R*)-[4,7-ethenylene-spiro[2.4]heptane]-5,6-dicarboxamide], the values for the EC50 in experiment [1] and in experiment [2] were 1750 nM and 18 nM, respectively.

With `CNCCNC(=O)[C@H]1[C@H](C(=O)NCc2nc(C(C)=O)cs2)[C@@H]2C=C[C@H]1C21CC1` (racemic) [Example 396, (5R*)—N^5-[(4-Acetyl-thiazol-2-yl)methyl]-(6R*)—N^6-(2-methylamino-ethyl)-(4S*,7R*)-[4,7-ethenylene-spiro[2.4]heptane]-5,6-dicarboxamide], the EC50 in experiment [1] worked out at 872 nM; in experiment [2], 1040 nM.

On to `CC(C)(C)OC(=O)NCCCCNC(=O)[C@H]1[C@H](C(=O)Nc2ncc(Br)s2)[C@@H]2CC[C@H]1C21CC1` [Example 332, (5R)—N^5-(5-Bromo-thiazol-2-yl)-(6R)—N^6-(4-tert-butoxycarbonyl-amino-butyl)-(4S,7R)-[4,7-ethylene-spiro[2.4]heptane]-5,6-dicarboxamide], for which the EC50 in experiment [1] was found to be 3540 nM; in experiment [2], 467 nM.

The values are drawn from patent US8563714B2, “Bridged spiro [2.4] heptane derivatives as ALX receptor and/or FPRL2 agonists” (Actelion Pharmaceuticals Ltd., priority 2009, dated 2013).
